What was measured:
Erysiphe graminis = Erysiphe graminis potting method; type: in vivo; conditions: Blumeria graminis; 100 mg/L; read-out: Erysiphe graminis control rating
Protocol: The fungicidal activity of the control agents and target compounds are determined. The test and investigation method refers to SOP-SC-1116 Erysiphe graminis potting method in disinfectant rolls written by KANGZHUO and GUBAOGEN in “Standard operation specification for testing biological activity of pesticides”.

Sphaerotheca fuliginea = Sphaerotheca fuliginea potting method; type: in vivo; conditions: Podosphaera fuliginea; 100 mg/L; read-out: Sphaerotheca fuliginea control rating
Protocol: The fungicidal activity of the control agents and target compounds are determined. The test and investigation method refers to SOP-SC-1101 sphaerotheca fuliginea potting method in disinfectant rolls written by KANGZHUO and GUBAOGEN in “Standard operation specification for testing biological activity of pesticides”.

succinate dehydrogenase = target: T1, succinate dehydrogenase (Sus scrofa, UniProt A5GZW8+D0VWV4+Q007T0); assay: Enzyme activity assay, succinate dehydrogenase (DCIP reduction); type: biochemical, porcine; conditions: read-out: Inhibitors (10 μM, SQR)
T1 construct: isolated from porcine hearts; from tissue; host or cells: porcine heart
Outline: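 Porcine heart succinate dehydrogenase (2 nM) in 100 mM sodium phosphate pH 7.4, 0.3 mM EDTA, 20 mM sodium succinate and 53 μM DCIP at 23° C with stirring. DCIP reduction followed at 600 nm (ε 21 mM^−1 cm^−1); linear slope minus baseline gives initial rate.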

T1 sequence (Q0QF01 43-664 partner): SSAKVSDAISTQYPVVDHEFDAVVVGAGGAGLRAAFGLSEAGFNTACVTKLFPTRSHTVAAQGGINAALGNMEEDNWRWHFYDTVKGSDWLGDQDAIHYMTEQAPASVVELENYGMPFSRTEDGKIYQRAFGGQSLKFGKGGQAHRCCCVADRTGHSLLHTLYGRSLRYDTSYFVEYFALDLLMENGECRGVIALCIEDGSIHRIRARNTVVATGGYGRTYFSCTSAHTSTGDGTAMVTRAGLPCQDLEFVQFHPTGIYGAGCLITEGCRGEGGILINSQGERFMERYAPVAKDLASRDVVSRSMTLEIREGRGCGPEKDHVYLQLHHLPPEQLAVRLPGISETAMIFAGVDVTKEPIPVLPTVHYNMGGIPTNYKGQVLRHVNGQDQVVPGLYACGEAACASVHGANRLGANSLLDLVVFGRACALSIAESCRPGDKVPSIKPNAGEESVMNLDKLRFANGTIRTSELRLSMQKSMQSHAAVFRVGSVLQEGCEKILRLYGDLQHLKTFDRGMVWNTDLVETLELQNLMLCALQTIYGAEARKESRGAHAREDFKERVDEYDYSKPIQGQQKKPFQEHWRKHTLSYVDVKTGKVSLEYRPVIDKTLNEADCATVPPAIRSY
T1 sequence (Q007T0 29-280): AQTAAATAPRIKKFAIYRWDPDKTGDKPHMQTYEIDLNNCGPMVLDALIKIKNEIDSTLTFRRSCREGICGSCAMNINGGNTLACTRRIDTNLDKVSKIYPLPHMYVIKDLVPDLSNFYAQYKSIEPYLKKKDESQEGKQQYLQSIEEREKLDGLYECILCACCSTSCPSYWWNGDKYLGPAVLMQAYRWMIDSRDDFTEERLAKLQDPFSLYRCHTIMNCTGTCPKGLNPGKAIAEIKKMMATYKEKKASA
T1 sequence (D0VWV4 30-169): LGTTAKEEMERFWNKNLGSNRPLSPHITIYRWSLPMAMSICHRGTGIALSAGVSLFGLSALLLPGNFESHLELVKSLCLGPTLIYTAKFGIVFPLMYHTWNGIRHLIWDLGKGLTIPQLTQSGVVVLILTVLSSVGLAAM
T1 sequence (A5GZW8 57-159 limits assumed): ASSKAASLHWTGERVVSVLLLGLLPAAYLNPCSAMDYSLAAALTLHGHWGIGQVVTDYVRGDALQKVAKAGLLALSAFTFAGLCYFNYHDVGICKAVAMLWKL

Row | Structure (SMILES) | pest or weed control at 100 µg/mL (Erysiphe graminis) | pest or weed control at 100 µg/mL (Sphaerotheca fuliginea) | inhibition at 10 µM (succinate dehydrogenase)
1 | C=C(CN(C(=O)c1c(C(F)F)nn(C)c1F)C1CC1)c1cc(S(C)(=O)=O)ccc1Cl [Compound 51] | 80 to 100% | 80 to 100% | > 90%
2 | CCS(=O)(=O)c1cccc(C(=C(Cl)Cl)C(C)N(C(=O)c2c(C(F)F)nn(C)c2F)C2CC2)c1 (stereo not drawn) [Compound 217] | 80 to 100% | 80 to 100% | > 90%
3 | C=C(c1cc(C)ccc1C(C)C)C(C)N(C(=O)c1c(C(F)F)nn(C)c1F)C1CC1 (stereo not drawn) [Compound 93] | 80 to 100% | 80 to 100% | > 90%
4 | CC(C(=C(Cl)Cl)c1cccc(Br)c1)N(C(=O)c1c(C(F)F)nn(C)c1F)C1CC1 (stereo not drawn) [Compound 186] | 80 to 100% | 80 to 100% | > 90%
5 | C=C(c1ccc(Cl)cc1F)C(C)N(C(=O)c1c(C(F)F)nn(C)c1F)C1CC1 (stereo not drawn) [Compound 97] | 80 to 100% | 80 to 100% | > 90%
6 | C=C(CN(C(=O)c1c(C(F)F)nn(C)c1F)C1CC1)c1cc(C)ccc1C(C)(C)C [Compound 39] | 80 to 100% | 70 to 80% | > 90%
7 | Cn1nc(C(F)F)c(C(=O)N(CC(=C(Cl)Cl)c2cc(Cl)ccc2F)C2CC2)c1F [Compound 155] | 80 to 100% | 80 to 100% | > 90%
8 | C=C(c1ccc(S(=O)(=O)CC)cc1)C(C)N(C(=O)c1c(C(F)F)nn(C)c1F)C1CC1 (stereo not drawn) [Compound 107] | 80 to 100% | 80 to 100% | > 90%
9 | Cc1ccc(C(CN(C(=O)c2c(C(F)F)nn(C)c2F)C2CC2)=C(Cl)Cl)cc1C [Compound 151] | 80 to 100% | 80 to 100% | > 90%
10 | C=C(c1c(Br)cccc1Br)C(C)N(C(=O)c1c(C(F)F)nn(C)c1F)C1CC1 (stereo not drawn) [Compound 84] | 80 to 100% | 80 to 100% | > 90%
11 | C=C(c1ccccc1C)C(C)N(C(=O)c1c(C(F)F)nn(C)c1F)C1CC1 (stereo not drawn) [Compound 87] | 80 to 100% | 80 to 100% | > 90%
12 | CC(C(=C(Cl)Cl)c1cc(Cl)ccc1F)N(C(=O)c1c(C(F)F)nn(C)c1F)C1CC1 (stereo not drawn) [Compound 208] | 80 to 100% | 80 to 100% | > 90%
13 | C=C(CN(C(=O)c1c(C(F)F)nn(C)c1F)C1CC1)c1cc(F)ccc1F [Compound 24] | 80 to 100% | 80 to 100% | > 90%
14 | CCS(=O)(=O)c1ccc(C(=C(Cl)Cl)C(C)N(C(=O)c2c(C(F)F)nn(C)c2F)C2CC2)cc1 (stereo not drawn) [Compound 216] | 80 to 100% | 80 to 100% | > 90%
15 | Cc1ccc(C(=C(Cl)Cl)C(C)N(C(=O)c2c(C(F)F)nn(C)c2F)C2CC2)cc1C (stereo not drawn) [Compound 204] | 80 to 100% | 80 to 100% | > 90%
16 | CC(C(=C(Cl)Cl)c1ccccc1Br)N(C(=O)c1c(C(F)F)nn(C)c1F)C1CC1 (stereo not drawn) [Compound 185] | 80 to 100% | 80 to 100% | > 90%
17 | CCS(=O)(=O)c1cccc(C(CN(C(=O)c2c(C(F)F)nn(C)c2F)C2CC2)=C(Cl)Cl)c1 [Compound 164] | 80 to 100% | 80 to 100% | > 90%
18 | C=C(c1ccc(F)cc1F)C(C)N(C(=O)c1c(C(F)F)nn(C)c1F)C1CC1 (stereo not drawn) [Compound 64] | 80 to 100% | 80 to 100% | > 90%
19 | C=C(CN(C(=O)c1c(C(F)F)nn(C)c1F)C1CC1)c1ccc(Br)cc1Br [Compound 28] | 80 to 100% | 80 to 100% | > 90%
20 | C=C(c1c(F)cccc1F)C(C)N(C(=O)c1c(C(F)F)nn(C)c1F)C1CC1 (stereo not drawn) [Compound 78] | 80 to 100% | 80 to 100% | > 90%
21 | Cn1nc(C(F)F)c(C(=O)N(CC(=C(Cl)Cl)c2cc(Br)ccc2Br)C2CC2)c1F [Compound 135] | 80 to 100% | 80 to 100% | > 90%
22 | C=C(c1ccccc1S(C)(=O)=O)C(C)N(C(=O)c1c(C(F)F)nn(C)c1F)C1CC1 (stereo not drawn) [Compound 105] | 80 to 100% | 80 to 100% | > 90%

Row | Structure (SMILES) | pest or weed control at 100 µg/mL (Erysiphe graminis) | pest or weed control at 100 µg/mL (Sphaerotheca fuliginea) | inhibition at 10 µM (succinate dehydrogenase)
23 | C=C(CN(C(=O)c1c(C(F)F)nn(C)c1F)C1CC1)c1cccc(Br)c1Br [Compound 86] | 80 to 100% | 80 to 100% | > 90%
24 | C=C(CN(C(=O)c1c(C(F)F)nn(C)c1F)C1CC1)c1ccc(F)cc1Cl [Compound 43] | 80 to 100% | 80 to 100% | > 90%
25 | C=C(CN(C(=O)c1c(C(F)F)nn(C)c1F)C1CC1)c1ccc(Cl)c(C(F)(F)F)c1 [Compound 11] | 80 to 100% | 80 to 100% | > 90%
26 | CC(C(=C(Cl)Cl)c1cccc(Cl)c1)N(C(=O)c1c(C(F)F)nn(C)c1F)C1CC1 (stereo not drawn) [Compound 169] | 80 to 100% | 80 to 100% | > 90%
27 | C=C(CN(C(=O)c1c(C(F)F)nn(C)c1F)C1CC1)c1cc(C(C)(C)C)ccc1C [Compound 40] | 80 to 100% | 70 to 80% | > 90%
28 | C=C(CN(C(=O)c1c(C(F)F)nn(C)c1F)C1CC1)c1cccc(C(F)(F)F)c1Cl [Compound 46] | 80 to 100% | 80 to 100% | > 90%
29 | Cn1nc(C(F)F)c(C(=O)N(CC(=C(Cl)Cl)c2ccc(Cl)cc2)C2CC2)c1F [Compound 112] | 80 to 100% | 80 to 100% | > 90%
30 | Cc1ccc(C(C)(C)C)cc1C(=C(Cl)Cl)C(C)N(C(=O)c1c(C(F)F)nn(C)c1F)C1CC1 (stereo not drawn) [Compound 200] | 80 to 100% | 80 to 100% | > 90%
31 | C=C(c1cc(C(C)(C)C)ccc1C)C(C)N(C(=O)c1c(C(F)F)nn(C)c1F)C1CC1 (stereo not drawn) [Compound 95] | 80 to 100% | 80 to 100% | > 90%
32 | Cc1ccc(C(C)C)c(C(=C(Cl)Cl)C(C)N(C(=O)c2c(C(F)F)nn(C)c2F)C2CC2)c1 (stereo not drawn) [Compound 198] | 80 to 100% | 80 to 100% | > 90%
33 | Cn1cc(C(=O)N(CC(=C(Cl)Cl)c2ccc(Cl)cc2)C2CC2)c(C(F)F)n1 [Compound 114] | 80 to 100% | 80 to 100% | > 90%
34 | C=C(CN(C(=O)c1c(C(F)F)nn(C)c1F)C1CC1)c1cccc(F)c1F [Compound 12] | 80 to 100% | 70 to 80% | > 90%
35 | C=C(CN(C(=O)c1c(C(F)F)nn(C)c1F)C1CC1)c1c(Cl)cccc1Cl [Compound 18] | 80 to 100% | 80 to 100% | > 90%
36 | C=C(CN(C(=O)c1c(C(F)F)nn(C)c1F)C1CC1)c1ccccc1S(C)(=O)=O [Compound 50] | 80 to 100% | 80 to 100% | > 90%
37 | CC(C(=C(Cl)Cl)c1ccc(S(C)(=O)=O)cc1Cl)N(C(=O)c1c(C(F)F)nn(C)c1F)C1CC1 (stereo not drawn) [Compound 212] | 80 to 100% | 80 to 100% | > 90%
38 | Cn1nc(C(F)F)c(C(=O)N(CC(=C(Cl)Cl)c2ccccc2Cl)C2CC2)c1F [Compound 116] | 80 to 100% | 80 to 100% | > 90%
39 | C=C(CN(C(=O)c1c(C(F)F)nn(C)c1F)C1CC1)c1ccc(S(=O)(=O)CC)cc1 [Compound 52] | 80 to 100% | 80 to 100% | > 90%
40 | C=C(c1cc(S(C)(=O)=O)ccc1Cl)C(C)N(C(=O)c1c(C(F)F)nn(C)c1F)C1CC1 (stereo not drawn) [Compound 106] | 80 to 100% | 80 to 100% | > 90%
41 | C=C(CN(C(=O)c1c(C(F)F)nn(C)c1F)C1CC1)c1ccccc1C [Compound 6] | 80 to 100% | 80 to 100% | > 90%
42 | CC(C(=C(Cl)Cl)c1cc(Cl)ccc1Cl)N(C(=O)c1c(C(F)F)nn(C)c1F)C1CC1 (stereo not drawn) [Compound 171] | 80 to 100% | 80 to 100% | > 90%
43 | C=C(c1c(C)cccc1C)C(C)N(C(=O)c1c(C(F)F)nn(C)c1F)C1CC1 (stereo not drawn) [Compound 90] | 80 to 100% | 80 to 100% | > 90%
44 | Cn1nc(C(F)F)c(C(=O)N(CC(=C(Cl)Cl)c2cc(Cl)cc(Cl)c2)C2CC2)c1F [Compound 122] | 80 to 100% | 80 to 100% | > 90%
